In PubChem BioAssay AID330 (DTP/NCI, 2004):
Values joined by “and” are separate entries in the source; they are usually repeats but may differ in a detail not shown here. Equal entries are not always repeated. Toxic doses and inconclusive results are not listed.

Test system: P388 leukemia ip, CD2F1 mice, survival T/C
Experiment: NCI In Vivo Anticancer Drug Screen. Data for tumor model P388 Leukemia (intraperitoneal) in CD2F1 (CDF1) mice
Settings: endpoint: median survival time, higher = longer survival
Procedure, shortened: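 Mice carrying the transplanted tumor received test compound or vehicle. Survival was recorded in each group, and the value is the treated-group measurement divided by that of the vehicle-treated control group.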

[1] = dose: 50.0 mg/kg/injection, schedule: Q01DX009 (ip), vehicle: Klucel (hydroxypropylcellulose) (HPC)
[2] = dose: 100.0 mg/kg/injection, schedule: Q01DX009 (ip), vehicle: Klucel (hydroxypropylcellulose) (HPC)
[3] = dose: 200.0 mg/kg/injection, schedule: Q01DX009 (ip), vehicle: Klucel (hydroxypropylcellulose) (HPC)
[4] = dose: 50.0 mg/kg/injection, schedule: Q01DX009 (ip), vehicle: saline with Tween-80
[5] = dose: 50.0 mg/kg/injection, schedule: Q01DX009 (ip), vehicle: saline
[6] = dose: 100.0 mg/kg/injection, schedule: Q01DX009 (ip), vehicle: saline
[7] = dose: 100.0 mg/kg/injection, schedule: Q04DX003 (ip), vehicle: saline with Tween-80
[8] = dose: 200.0 mg/kg/injection, schedule: Q04DX003 (ip), vehicle: saline with Tween-80
[9] = dose: 400.0 mg/kg/injection, schedule: Q04DX003 (ip), vehicle: saline with Tween-80
[10] = dose: 50.0 mg/kg/injection, schedule: Q01DX005 (ip), vehicle: Klucel (hydroxypropylcellulose) (HPC)
[11] = dose: 100.0 mg/kg/injection, schedule: Q01DX005 (ip), vehicle: Klucel (hydroxypropylcellulose) (HPC)
[12] = dose: 200.0 mg/kg/injection, schedule: Q01DX005 (ip), vehicle: Klucel (hydroxypropylcellulose) (HPC)
[13] = dose: 60.0 mg/kg/injection, schedule: Q01DX005 (ip), vehicle: saline with Tween-80
[14] = dose: 120.0 mg/kg/injection, schedule: Q01DX005 (ip), vehicle: saline with Tween-80
[15] = dose: 240.0 mg/kg/injection, schedule: Q01DX005 (ip), vehicle: saline with Tween-80
[16] = dose: 50.0 mg/kg/injection, schedule: Q01DX005 (ip), vehicle: saline with Tween-80
[17] = dose: 100.0 mg/kg/injection, schedule: Q01DX005 (ip), vehicle: saline with Tween-80
[18] = dose: 30.0 mg/kg/injection, schedule: Q01DX005 (ip), vehicle: Klucel (hydroxypropylcellulose) (HPC)
[19] = dose: 60.0 mg/kg/injection, schedule: Q01DX005 (ip), vehicle: Klucel (hydroxypropylcellulose) (HPC)
[20] = dose: 50.0 mg/kg/injection, schedule: Q01DX005 (ip), vehicle: saline
[21] = dose: 100.0 mg/kg/injection, schedule: Q01DX009 (ip), vehicle: saline with Tween-80
[22] = dose: 200.0 mg/kg/injection, schedule: Q01DX009 (ip), vehicle: saline with Tween-80
[23] = dose: 50.0 mg/kg/injection, schedule: Q04DX003 (ip), vehicle: saline with Tween-80

Compound: O=C1OC2=C(CCCc3ccccc32)C(N(c2ccccc2)c2ccccc2)C1(Cl)Cl (centres undefined)
- T/C [1]: 96 % of control
- T/C [2]: 88 % of control
- T/C [3]: 89 % of control

Compound: Cn1/c2cc/c1=C(\c1ccc(S(=O)(=O)O)cc1)c1ccc([n-]1)/C(c1ccc(S(=O)(=O)O)cc1)=c1/cc/c([nH]1)=C(\c1ccc(S(=O)(=O)O)cc1)c1ccc([n-]1)/C=2c1ccc(S(=O)(=O)O)cc1.O.O=S(=O)(O)C(F)(F)F.[Cu+2]
- T/C (dose: 12.5 mg/kg/injection, schedule: Q01DX009 (ip), vehicle: saline with Tween-80): 112 % of control
- T/C (dose: 25.0 mg/kg/injection, schedule: Q01DX009 (ip), vehicle: saline with Tween-80): 121 % of control
- T/C [4]: 119 % of control
- T/C [5]: 92 % of control
- T/C [6]: 100 % of control

Compound: COc1ccc(Br)cc1/C=N/N=C/c1cc(Br)ccc1OC
- T/C [7]: 90 % of control
- T/C [8]: 86 % of control
- T/C [9]: 86 % of control

Compound: CCOP(=S)(N/N=C/c1ccc2ccccc2c1O)OCC
- T/C [10]: 109 % of control
- T/C [11]: 106 % of control
- T/C [12]: 95 % of control

Compound: CC1=NN(c2cc(S(=O)(=O)O)ccc2Cl)C(=O)C1N=Nc1ccccc1 (centres undefined)
- T/C [5]: 105 % of control
- T/C [6]: 89 % of control

Compound: CNNCc1ccc(C(=O)NC(N)=O)cc1
- T/C (dose: 300.0 mg/kg/injection, schedule: Q01DX009 (ip), vehicle: saline): 170 % of control

Compound: O=C1NC2C=CN(Cc3ccccc3)C=C2C(=O)N2CCCC12 (centres undefined)
- T/C [13]: 101 % of control
- T/C [14]: 101 % of control
- T/C [15]: 97 % of control

Compound: Cc1nc2cc(C)n3c(C)nnc3n2n1
- T/C [16]: 105 % of control
- T/C [17]: 100 % of control
- T/C (dose: 200.0 mg/kg/injection, schedule: Q01DX005 (ip), vehicle: saline with Tween-80): 100 % of control

Compound: CCOC(=O)/C=C1\SC(C)(C)C1NC(=O)OCc1ccccc1 (centres undefined)
- T/C (dose: 15.0 mg/kg/injection, schedule: Q01DX005 (ip), vehicle: Klucel (hydroxypropylcellulose) (HPC)): 94 % of control
- T/C [18]: 103 % of control
- T/C [19]: 91 % of control and 93 % of control

Compound: CCCN(CCC)c1ncnc2[nH]ncc12
- T/C [20]: 92 % of control
- T/C (dose: 100.0 mg/kg/injection, schedule: Q01DX005 (ip), vehicle: saline): 92 % of control

Compound: O=c1c2ccccc2nc2n1CCC/C2=C\c1ccc2c(c1)OCO2
- T/C (dose: 91.75 mg/kg/injection, schedule: Q04DX002 (ip), vehicle: Klucel (hydroxypropylcellulose) (HPC)): 100 % of control
- T/C (dose: 183.5 mg/kg/injection, schedule: Q04DX002 (ip), vehicle: Klucel (hydroxypropylcellulose) (HPC)): 103 % of control
- T/C (dose: 367.0 mg/kg/injection, schedule: Q04DX002 (ip), vehicle: Klucel (hydroxypropylcellulose) (HPC)): 102 % of control

Compound: COc1ccc2ncc(COC(=O)NC3CCCCC3)c(COC(=O)NC3CCCCC3)c2c1
- T/C (dose: 12.5 mg/kg/injection, schedule: Q01DX005 (ip), vehicle: Klucel (hydroxypropylcellulose) (HPC)): 91 % of control
- T/C (dose: 25.0 mg/kg/injection, schedule: Q01DX005 (ip), vehicle: Klucel (hydroxypropylcellulose) (HPC)): 94 % of control
- T/C [10]: 88 % of control

Compound: O=[N+]([O-])c1ccc(S(=O)(=O)NCCSSCCNS(=O)(=O)c2ccc([N+](=O)[O-])cc2)cc1
- T/C [1]: 90 % of control
- T/C [2]: 93 % of control
- T/C [3]: 90 % of control

Compound: CCOCCOC(=O)Nc1c(Cl)cccc1Cl
- T/C [13]: 101 % of control
- T/C [14]: 96 % of control
- T/C [15]: 95 % of control

Compound: O=[N+]([O-])c1cc2[nH]cnc2c([N+](=O)[O-])c1NCCO
- T/C [4]: 110 % of control
- T/C [21]: 108 % of control
- T/C [22]: 94 % of control

Compound: [Cl][Pd][Cl].[NH-]C(CO)C(=O)O (centres undefined)
- T/C (dose: 12.5 mg/kg/injection, schedule: Q01DX005 (ip), vehicle: saline): 94 % of control
- T/C (dose: 25.0 mg/kg/injection, schedule: Q01DX005 (ip), vehicle: saline): 102 % of control
- T/C [20]: 106 % of control and 98 % of control

Compound: N#Cc1c(N)nc(-c2ccccc2)nc1Nc1ccccc1
- T/C [13]: 90 % of control
- T/C [14]: 104 % of control
- T/C [15]: 99 % of control

Compound: CCN(CC)CCNC(=O)c1ccc2c(c1O)C(=O)c1ccccc1C2=O
- T/C [16]: 106 % of control
- T/C [17]: 106 % of control

Compound: O=C1OC(C(O)CO)C(=N\Nc2ccc(Cl)cc2)/C1=N/Nc1ccccc1 (centres undefined)
- T/C (dose: 100.0 mg/kg/injection, schedule: Q01DX001 (ip), vehicle: Klucel (hydroxypropylcellulose) (HPC)): 103 % of control
- T/C (dose: 200.0 mg/kg/injection, schedule: Q01DX001 (ip), vehicle: Klucel (hydroxypropylcellulose) (HPC)): 103 % of control
- T/C (dose: 400.0 mg/kg/injection, schedule: Q01DX001 (ip), vehicle: Klucel (hydroxypropylcellulose) (HPC)): 110 % of control

Compound: c1ccc(-c2ccc[n+](CCCC[n+]3cccc(-c4ccccn4)c3)c2)nc1
- T/C (dose: 7.5 mg/kg/injection, schedule: Q01DX005 (ip), vehicle: saline): 106 % of control
- T/C (dose: 15.0 mg/kg/injection, schedule: Q01DX005 (ip), vehicle: saline): 106 % of control

Compound: NC(=O)c1ccccc1NCCc1ccccc1
- T/C (dose: 25.0 mg/kg/injection, schedule: Q04DX003 (ip), vehicle: saline with Tween-80): 91 % of control
- T/C [23]: 100 % of control
- T/C [7]: 104 % of control and 97 % of control
- T/C [9]: 97 % of control

Compound: COC(=O)CCCCCCCCCCCC1C=CCC1 (centres undefined)
- T/C (dose: 100.0 mg/kg/injection, schedule: Q01DX001 (ip), vehicle: saline): 105 % of control
- T/C (dose: 200.0 mg/kg/injection, schedule: Q01DX001 (ip), vehicle: saline): 100 % of control
- T/C (dose: 400.0 mg/kg/injection, schedule: Q01DX001 (ip), vehicle: saline): 104 % of control

Compound: O=C(O)N1CCc2c(sc3ccccc23)C1
- T/C (dose: 12.5 mg/kg/injection, schedule: Q01DX001 (ip), vehicle: Klucel (hydroxypropylcellulose) (HPC)): 103 % of control
- T/C (dose: 25.0 mg/kg/injection, schedule: Q01DX001 (ip), vehicle: Klucel (hydroxypropylcellulose) (HPC)): 98 % of control
- T/C (dose: 50.0 mg/kg/injection, schedule: Q01DX001 (ip), vehicle: Klucel (hydroxypropylcellulose) (HPC)): 100 % of control and 104 % of control

Compound: CC(=O)CC(=O)CCCCC(=O)O
- T/C [4]: 112 % of control
- T/C [21]: 112 % of control
- T/C [22]: 104 % of control

Compound: O=C(NCCCCCCCCCCNC(=O)C12CC3CC(CC(C3)C1)C2)C12CC3CC(CC(C3)C1)C2
- T/C (dose: 12.5 mg/kg/injection, schedule: Q01DX005 (ip), vehicle: saline with Tween-80): 98 % of control
- T/C (dose: 25.0 mg/kg/injection, schedule: Q01DX005 (ip), vehicle: saline with Tween-80): 96 % of control
- T/C [16]: 86 % of control and 91 % of control

Compound: O=S(=O)(c1ccc(NC(=S)N2CCCCC2)cc1)N1CCCCC1
- T/C [1]: 95 % of control
- T/C [2]: 88 % of control
- T/C [3]: 86 % of control

Compound: COc1cccc(/C=C/C(C)=N/NC(N)=O)c1
- T/C [18]: 100 % of control
- T/C [19]: 101 % of control
- T/C (dose: 120.0 mg/kg/injection, schedule: Q01DX005 (ip), vehicle: Klucel (hydroxypropylcellulose) (HPC)): 100 % of control
- T/C (dose: 240.0 mg/kg/injection, schedule: Q01DX005 (ip), vehicle: Klucel (hydroxypropylcellulose) (HPC)): 95 % of control

Compound: Nc1ccc2ncccc2c1[N+](=O)[O-]
- T/C [7]: 95 % of control
- T/C [8]: 94 % of control

Compound: Cc1nc2c(ncn2C2OC(CO)C(O)C2O)c(=O)[nH]1 (centres undefined)
- T/C [23]: 96 % of control
- T/C [7]: 101 % of control
- T/C [8]: 109 % of control
- T/C [9]: 111 % of control

Compound: CCCNC(=O)CCC(NS(=O)(=O)c1ccc(NC(C)=O)cc1)C(=O)O (centres undefined)
- T/C [10]: 100 % of control
- T/C [11]: 98 % of control
- T/C [12]: 100 % of control

Compound: CCOC(=O)C(Cc1c[nH]c2ccccc12)(NC(C)=O)C(=O)OCC
- T/C [7]: 100 % of control
- T/C [8]: 100 % of control
- T/C [9]: 100 % of control

Compound: CCO/C=N\c1c(NC(N)=O)cnn1Cc1ccccc1
- T/C (dose: 100.0 mg/kg/injection, schedule: Q01DX001 (ip), vehicle: saline with Tween-80): 96 % of control
- T/C (dose: 200.0 mg/kg/injection, schedule: Q01DX001 (ip), vehicle: saline with Tween-80): 93 % of control
- T/C (dose: 400.0 mg/kg/injection, schedule: Q01DX001 (ip), vehicle: saline with Tween-80): 98 % of control
